Results on 15 molecules are retold here after patent US20250019385A1, “SPIROCYCLIC ANNULATED 2-AMINO-3-CYANO THIOPHENES AND DERIVATIVES FOR THE TREATMENT OF CANCER” (Boehringer Ingelheim International GmbH, priority 2023, published 2025).

The nature of this series: Caco-2 assay (permeability and efflux ratio). It counts as in vitro ADME. The following applies: human; for Papp A→B at 90 min, 10 μM: Caco-2 apical to basolateral permeability, pH 7.4, read-out: Caco PappAB; for efflux ratio at 90 min, 10 μM: pH 7.4, Caco-2 efflux ratio PappBA/PappAB, read-out: Caco ER. On the procedure:
The assay provides information on the potential of a compound to pass the cell membrane, on the extent of oral absorption as well as on whether the compound is actively transported by uptake and/or efflux transporters. Permeability measurements across polarized, confluent Caco-2 cell monolayers grown on permeable filter supports (Corning, catalog #3391) are used. 10 μM test compound solution in assay buffer (128.13 mM NaCl, 5.36 mM KCl, 1 mM MgSO4, 1.8 mM CaCl2), 4.17 mM NaHCO3, 1.19 mM Na2HPO4, 0.41 mM NaH2PO4, 15 mM 2-[4-(2-hydroxyethyl)piperazin-1-yl]ethanesulfonic acid (HEPES), 20 mM glucose, pH 7.4) was added to the donor compartment of the cell chamber containing a monolayer of Caco-2 cells in between the donor and the receiver compartment. The receiver and donor compartments contain 0.25% bovine serum albumine (BSA) in assay buffer. Passive diffusion and/or active transport of compounds across the monolayer is measured in both apical to basolateral (a-b) and basolateral to apical (b-a) direction. a-b permeability (PappAB) represents drug absorption from the intestine into the blood and b-a permeability (PappBA) drug secretion from the blood back into the intestine via both passive permeability as well as active transport mechanisms mediated by efflux and uptake transporters that are expressed on the Caco-2 cells. After a pre-incubation of 25-30 min at 37° C., at predefined time points (0, 30, 60 and 90 min), samples were taken from the receiver and donor compartment, respectively. Concentrations of test compounds in samples were measured by HPLC/MS/MS, samples from the donor compartment were diluted 1:50 (v:v) with assay buffer, samples from receiver compartment were measured without dilution.
Apparent permeabilities in a-b (PappAB) and b-a (PappBA) directions are calculated according to the formula:
[formula] • Vrec [mL]: buffer volume in receiver compartment • Cdon [μmol/mL]: concentration of test compound in donor compartment at t=0 • ΔCrec: difference between concentrations of test compound in receiver compartment at start and end of incubation time • Δt: Incubation time • Vrec·ΔCrec/Δt [μmol/min]: Amount of compound transferred to receiver compartment per time • A [cm^2]: filter surface
Caco-2 efflux ratios (ER) are calculated as the ratio of PappBA/PappAB.
In general terms: Caco-2 cells form a polarised layer with tight junctions and transporters.

With `C[C@@H]1COC[C@H](n2c(=O)n(C)c3c(O[C@@H](C)[C@@H]4CCCN4C)nc(-c4onc5c4CCC[C@@]54CCCc5sc(N)c(C#N)c54)nc32)C1` [I-44], the Papp A→B at 90 min, 10 μM came to 14 ×10⁻⁶ cm/s and the efflux ratio at 90 min, 10 μM was 2.5.

Consider `C[C@H](Oc1nc(-c2onc3c2CCC[C@@]32CCCc3sc(N)c(C#N)c32)nc2c1n(C)c(=O)n2[C@@]12COC[C@@H]1C2)[C@@H]1CC[C@H](C)N1C` [I-45], for which the Papp A→B at 90 min, 10 μM was determined as 43 ×10⁻⁶ cm/s and the efflux ratio at 90 min, 10 μM stood at 0.6.

Turning to `CO[C@@H]1C[C@@H]([C@H](C)Oc2nc(-c3onc4c3CCC[C@@]43CCCc4sc(N)c(C#N)c43)nc3c2n(C)c(=O)n3[C@@]23COC[C@@H]2C3)N(C)C1` [I-46], the Papp A→B at 90 min, 10 μM turned out to be 21 ×10⁻⁶ cm/s and the efflux ratio at 90 min, 10 μM was determined as 1.8.

For the molecule `CO[C@H]1CCN(C)[C@@H]1[C@H](C)Oc1nc(-c2onc3c2CCC[C@@]32CCCc3sc(N)c(C#N)c32)nc2c1n(C)c(=O)n2[C@H]1COC[C@@H](C)C1` [I-51], the Papp A→B at 90 min, 10 μM stood at 36 ×10⁻⁶ cm/s and the efflux ratio at 90 min, 10 μM worked out at 0.5.

On to `CO[C@@H]1C[C@@H]([C@H](C)Oc2nc(-c3onc4c3CCC[C@@]43CCCc4sc(N)c(C#N)c43)nc3c2n(C)c(=O)n3[C@H]2COC[C@@H](C)C2)N(C)C1` [I-52], for which the Papp A→B at 90 min, 10 μM came out at 34 ×10⁻⁶ cm/s and the efflux ratio at 90 min, 10 μM came to 0.6.

Take `C[C@H](Oc1nc(-c2onc3c2CCC[C@@]32CCCc3sc(N)c(C#N)c32)nc2c1CN(C1COC1)C[C@]21CCOC1)[C@@H]1CC[C@H](C)N1C` [I-55]: the Papp A→B at 90 min, 10 μM amounted to 24 ×10⁻⁶ cm/s and the efflux ratio at 90 min, 10 μM is 2.3.

On to `C[C@H](Oc1nc(-c2onc3c2CCC[C@@]32CCCc3sc(N)c(C#N)c32)nc2c1CN(C1COC1)C[C@]21CCOC1)[C@@H]1CCCN1C` [I-56], for which the Papp A→B at 90 min, 10 μM worked out at 8.4 ×10⁻⁶ cm/s and the efflux ratio at 90 min, 10 μM came out at 7.1.

`CO[C@H]1CCN(C)[C@@H]1[C@H](C)Oc1nc(-c2onc3c2CCC[C@@]32CCCc3sc(N)c(C#N)c32)nc2c1CN(C1COC1)C[C@]21CCOC1` [I-57]: the Papp A→B at 90 min, 10 μM was found to be 35 ×10⁻⁶ cm/s and the efflux ratio at 90 min, 10 μM was 1.3.

Regarding `C[C@H](Oc1nc(-c2noc3c2CCC[C@@]32CCCc3sc(N)c(C#N)c32)nc2c1n(C)c(=O)n2[C@H]1CO[C@@H](C)C1)[C@@H]1CCCN1C` [II-5], the Papp A→B at 90 min, 10 μM was found to be 8.7 ×10⁻⁶ cm/s and the efflux ratio at 90 min, 10 μM was 5.9.

In the case of `CO[C@@H]1C[C@@H]([C@H](C)Oc2nc(-c3noc4c3CCC[C@@]43CCCc4sc(N)c(C#N)c43)nc3c2n(C)c(=O)n3[C@@]23COC[C@@H]2C3)N(C)C1` [II-6], the Papp A→B at 90 min, 10 μM came to 13 ×10⁻⁶ cm/s and the efflux ratio at 90 min, 10 μM turned out to be 4.3.

In the case of `CO[C@@H]1C[C@@H]([C@H](C)Oc2nc(-c3noc4c3CCC[C@@]43CCCc4sc(N)c(C#N)c43)nc3c2COC[C@]32CCOC2)N(C)C1` [II-11], the Papp A→B at 90 min, 10 μM was determined as 27 ×10⁻⁶ cm/s and the efflux ratio at 90 min, 10 μM was determined as 0.9.

For `C[C@H](Oc1nc(-c2noc3c2CCC[C@@]32CCCc3sc(N)c(C#N)c32)nc2c1CN(C1COC1)C[C@]21CCOC1)[C@@H]1CCCN1C` [II-12], the Papp A→B at 90 min, 10 μM is 2.9 ×10⁻⁶ cm/s and the efflux ratio at 90 min, 10 μM is 21.6.

For the molecule `CO[C@H]1CCN(C)[C@@H]1[C@H](C)Oc1nc(-c2noc3c2CCC[C@@]32CCCc3sc(N)c(C#N)c32)nc2c1CN(C1COC1)C[C@]21CCOC1` [II-13], the Papp A→B at 90 min, 10 μM worked out at 18 ×10⁻⁶ cm/s and the efflux ratio at 90 min, 10 μM turned out to be 2.9.

In the case of `CO[C@@H]1C[C@@H]([C@H](C)Oc2nc(-c3noc4c3CCC[C@@]43CCCc4sc(N)c(C#N)c43)nc3c2CN(C2COC2)C[C@]32CCOC2)N(C)C1` [II-14], the Papp A→B at 90 min, 10 μM was 3.2 ×10⁻⁶ cm/s and the efflux ratio at 90 min, 10 μM stood at 15.3.

In the case of `C[C@H](Oc1nc(-c2noc3c2CCC[C@@]32SCCc3sc(N)c(C#N)c32)nc2c1COC[C@]21CCOC1)[C@@H]1CCCN1C` [II-16], the Papp A→B at 90 min, 10 μM came to 12 ×10⁻⁶ cm/s and the efflux ratio at 90 min, 10 μM amounted to 3.8.
